Results as given in patent US8410175B2, “Anticancer effect enhancer” (Nippon Kayaku Kabushiki Kaisha, priority 2004, dated 2013).

Tests used:
[1] = test system: Murine Lewis lung carcinoma (LLC) cells; experiment: Murine lung cancer model, tumor volume growth; assay type: in vivo; parameters: dose or concentration left out as unconfirmed; settings: LLC s.c. in C57BL6 mice; two weeks
Description: Tumor volume was calculated as 0.5×{tumor length (mm)}[…]{tumor width (mm)}^2. The […] was calculated by student t-test.
(§1) Murine Lewis lung carcinoma (LLC) cells, lung adenocarcinoma cells, were obtained from the Tohoku University Cell Resource Center for Biomedical Research and were incubated with DMEM plus 10% fetal bovine serum until cell proliferation was sufficient to perform the experiments. The LLC cells were adjusted to concentrations of 2×10^5 cells/100 μl with phosphate buffer saline (PBS), and were inoculated Six-week-old male C57BL6 mice purchased from Charles River Japan, Inc. (Tokyo, Japan) and Clea Japan, Inc. (Tokyo, Japan) subcutaneously (2×10^5 cells/100 μl/mouse) at the right hypochondrium. Mice were maintained under specific-pathogen-free conditions, and provided with sterile food and water. When transplanted tumors grew to approximately 100 mm^3 in tumor volume, animals were equally divided into four groups (Control group, n=6; C, NO donor group, n=6; N, Chemotherapy group, n=6; CTX, and NO plus chemotherapy group, n=6; N+CTX). Tumor volume was calculated as 0.5×{tumor length (mm)}×{tumor width (mm)}^2. […]

[2] = test system: Colon 26 cells, murine colon cancer cells; experiment: Murine colon cancer model, tumor volume growth; assay type: in vivo; parameters: dose or concentration left out as unconfirmed; settings: colon 26 s.c. in BALB/c mice; two weeks
Description: Tumor volume was calculated as 0.5×{tumor length (mm)}×{tumor width (mm)}^2. The P value was calculated by student t-test.
as §1, with “Colon 26” for “Murine Lewis lung carcinoma (LLC)”, “murine colon cancer” for “lung adenocarcinoma”, “RPMI 1640” for “DMEM”, “colon 26” for “LLC”, “female BALB/c” for “male C57BL6”, “subcutanously” for “subcutaneously”

O=[N+]([O-])OCC(CO[N+](=O)[O-])O[N+](=O)[O-] [NO donor, nitroglycerin]
murine tumor volume [1]: rapid tumor growth | murine tumor volume [2]: rapid tumor growth
